Experiments:
pigweed = test: Test A preemergence; format: in vivo, Amaranthus retroflexus; conditions: Amaranthus retroflexus, pre-emergence, 240 h, 0 to 100 scale (0 no effect, 100 complete control), read-out: Plant response rating, Pigweed
Method in brief: (§1)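 Herbicidal response was scored on plants treated pre- or postemergence with surfactant-containing, non-phytotoxic solvent formulations. Preemergence meant a directed spray onto soil (loam–sand) holding sown seed; postemergence plants were at one to two leaves.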

wheat = test: Test A preemergence; format: in vivo, Triticum aestivum; conditions: Triticum aestivum, pre-emergence, 240 h, 0 to 100 scale (0 no effect, 100 complete control), read-out: Plant response rating, Wheat
Method in brief: as §1

corn = test: Test A postemergence; format: in vivo, Zea mays; conditions: Zea mays, post-emergence, 240 h, 0 to 100 scale (0 no effect, 100 complete control), approx. 10 d
Method in brief: as §1

Structure (SMILES): Cn1nc(-c2ccc(F)cc2)nc1Oc1cccc(C(F)(F)F)c1 [Compound 5, 3-(4-fluorophenyl)-1-methyl-5-[3-(trifluoromethyl)phenoxy]-1H-1,2,4-triazole]
- pest or weed control at 125 g/ha (pigweed; 125 g ai/ha): 40%
- pest or weed control at 500 g/ha (pigweed; 500 g ai/ha, approx. 10 d): 50%
- plant injury at 125 g/ha (wheat; 125 g ai/ha): 0%
- plant injury at 500 g/ha (wheat; 500 g ai/ha, approx. 10 d): 0%
- Corn plant response rating (crop injury, 0 = no effect, 100 = complete kill) at 125 g/ha (corn; 125 g ai/ha): 10%
- Corn plant response rating (crop injury, 0 = no effect, 100 = complete kill) at 500 g/ha (corn; 500 g ai/ha): 20%

From patent US10681909B2, “Herbicidal triazoles” (FMC Corporation, priority 2014, dated 2020)
